Data on one compound can be found in patent US11702402B2, “Small molecules that block proteasome-associated ubiquitin receptor RPN13 function and uses thereof” (DANA-FARBER CANCER INSTITUTE, INC., priority 2018, dated 2023).

In one data set the target is RPN13 (Homo sapiens, UniProt Q16186). The experiment in a line: Rpn13 immunoblot in MM.1S-CRBN KO cells. In kind it is cell-based. The arrangement: endogenous in cells; host or cells: MM.1S; MM.1S-CRBN KO; RPMI-8226; ANBL6.BR. Conditions: 400 nM, 16 hours, versus DMSO. As to the method:
FIGS. 19A-19I show the exemplary design and characterization of exemplary Rpn13 degrader WL40. […] WL40 was created by linking the Rpn13 inhibitor RA190 to the IMiD thalidomide as a ligand for the CRBN E3 ligase via a PEG linker. […] FIG. 19C is a schematic cartoon for the novel AlphaScreen assay to measure the binding activity of inhibitor with RPN13 proteins. […] FIG. 19E depicts immunoblot analysis of multiple myeloma 1S (MM.1S) cells, which were treated with WL40 or RA190 at the indicated concentrations and time periods; protein lysates were subjected to the immunoblot analysis using anti-Rpn13 or anti-tubulin Abs. FIG. 19F depicts flow cytometry analysis of MM.1S cells, which were treated with DMSO control, WL40 (400 nM), or RA190 (500 nM) for 16 hours; cells were then washed and stained with Rpn13 Ab conjugated with AlexaFluor-647, followed by the flow cytometry analysis. Isotype Ab conjugated to AlexaFluor-647 was used as control for non-specific binding. Data was quantified using FACS Diva (BD Biosciences, USA) and FlowJo (FlowJo LLC, USA). […]
To confirm that CRBN presence is a prerequisite for the function of WL40 in cells, CRBN-knockout (KO) MM.1S cells^27, 38 were utilized, and the effect of WL40 on Rpn13 degradation was examined. […] GFPu-1 cells were treated with WL40, and GFP levels were then analyzed using immunoblotting. […]
A general note: A western blot detects proteins with antibodies after separation by electrophoresis.

In a further data set the test system is MM.1R cells. The experiment in a line: MM.1R cell viability (WST). In kind it is cell-based, Human. Conditions: MM.1R (dexamethasone-resistant), 48 hours. An excerpt:
(§1) The IC50 of WL40 for cell lines is shown.

The next data set has as its system normal PBMCs. The data set can be described thus: Viability of normal PBMCs. In kind it is cell-based, Human. The note with it: 48 hours. The method, then:
FIGS. 5A and 5B show PBMCs from normal healthy donor treated with WL40 and WL44 at the indicated concentrations for 48 hours. […]
as §1

Data set [1] deals with Recombinant 20S proteasome (Homo sapiens, UniProt P28072+P28074+Q99436). The data set can be described thus: Recombinant 20S proteasome activity assay. In kind it is biochemical. The note with it: purified recombinant 20S proteasome; 30 minutes. As to the method: (§2) MM.1S cells, which were treated with DMSO control, bortezomib, or WL40 at indicated concentration for 3 hours; protein lysates were analyzed for different proteasome activities (CT-L, chymotrypsin-like; T-L, trypsin-like; C-L, caspase-like). FIG. 20B is a bar graph showing percent proteasome activity after normalization with DMSO control (mean±SD; n=3). Recombinant 20S proteasome was incubated with DMSO, bortezomib, or WL40 for 30 minutes, followed by assessment of the above-noted proteasome activities. FIG. 20C MM.1S cells were pretreated with exemplary proteasome inhibitor MG132 (10 μM) for 1 hour, followed by addition of WL40 (400 nM) for 8 hours. […] Total protein lysates were subjected to immunoblots for Rpn13 and α-tubulin. […] FIG. 20E ANBL6.BR cells were treated with WL40 (400 nM) or RA190 (500 nM) for 16 hours; protein lysates were subjected to immunoblot analysis using anti-Rpn13 or anti-β-actin Abs.
To eliminate the potential impact of WL40 on proteasome function, the effect of WL40 on proteasome activities was assessed.

The test system of data set [2] is polyubiquitinated (PolyUb) protein. The data set can be described thus: Polyubiquitinated protein immunoblot in MM.1S and ANBL6.BR cells. In kind it is cell-based, Human. The note with it: MM.1S: WL40 200 nM, RA190 300 nM, bortezomib 5 nM; ANBL6.BR: WL40 1 μM 6 hours. As to the method:
as §2
Cellular protein extracts were prepared using RIPA lysis buffer (50 mM Tris-HCl, 150 mM NaCl, 1% NP-40, 0.5% sodium deoxycholate, and 0.1% SDS). […]
Next, the effect of WL40 on additional MM cell lines, including p53-mutated RPMI-8226 cells or bortezomib-resistant ANBL6.BR cells, was evaluated. […]

SMILES strings stand for the structures. Entries after “also recorded” stand apart in the source; their conditions may differ.

RPN13, sequence (Q16186 whole entry): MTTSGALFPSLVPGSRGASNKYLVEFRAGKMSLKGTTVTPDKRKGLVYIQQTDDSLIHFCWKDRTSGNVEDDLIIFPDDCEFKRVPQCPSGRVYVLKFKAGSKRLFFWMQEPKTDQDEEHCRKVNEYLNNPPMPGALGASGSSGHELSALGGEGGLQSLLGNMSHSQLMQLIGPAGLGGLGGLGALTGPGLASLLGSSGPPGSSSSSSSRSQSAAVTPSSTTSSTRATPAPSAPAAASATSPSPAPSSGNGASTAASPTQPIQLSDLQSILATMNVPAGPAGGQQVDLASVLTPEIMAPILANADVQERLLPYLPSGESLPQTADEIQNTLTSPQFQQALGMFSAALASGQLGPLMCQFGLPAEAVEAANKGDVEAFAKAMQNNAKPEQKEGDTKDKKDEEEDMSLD

With `O=C1CCC(N2C(=O)c3cccc(NCCOCCOCCOCCC(=O)N[C@@H](Cc4ccccc4)C(=O)N4C/C(=C\c5ccc(Cl)c(Cl)c5)C(=O)/C(=C/c5ccc(Cl)c(Cl)c5)C4)c3C2=O)C(=O)N1` (stereo partly drawn) [WL40], the “Rpn13 levels (immunoblot)” value at RPN13 is recorded as “no decrease in Rpn13 levels”. In addition, the “cytotoxicity (cell viability)” value in the data set with MM.1R cells is given as “more cytotoxic than the parental Rpn13 inhibitor RA190”. Moreover, the “viability of normal PBMCs” value is recorded as “do not significantly affect the viability” in the data set with normal PBMCs (at the IC50, Wst-1) and “does not affect viability of normal PBMCs” in the data set on normal PBMCs (at the IC50 for MM cells, CellTiter-Glo). In addition, in data set [1], the “20S proteasomal activities (chymotrypsin-like, trypsin-like, caspase-like)” value was “does not inhibit 20S proteasomal activities”. Further, in data set [2], the “PolyUb protein accumulation (immunoblot)” value was “marked increase in PolyUb proteins; also recorded: more rapid and higher molecular weight PolyUb versus bortezomib”.
